Assay [1] deals with Staphylococcus aureus E48. As to the kind of experiment: Minimum inhibitory concentration (broth microdilution, Mueller-Hinton broth). It counts as cell-based. Particulars: 5 × 10^5 CFU/mL, 37°C, 16-20 h, three replicates, read-out: MIC against S. aureus E48. As to the method: Staphylococcus aureus E48, a clinical mastitis isolate, had been used to induce mouse mastitis model ([Wang et al., 2017]). […] It was used as a positive control in this study and was purchased from Sigma–Aldrich. The AMPs were prepared according to a previously described protocol ([Zhang et al., 2015]). The minimum inhibitory concentrations (MICs) were used to evaluate the antibacterial activities of antimicrobial agents ([Wiegand et al., 2008]). Briefly, S. aureus were grown to the log-phase at 37°C in the Mueller–Hinton broth, and diluted to 5 × 10^5 CFU/mL with the fresh medium. A total of 180 μL of cell suspension and 20 μL of serially twofold diluted peptide were added to each well, and the plates were incubated at 37°C for 16–20 h. The final concentration of antimicrobial agents was prepared with gradients of 64, 32, 16, 8, 4, 2, 1, 0.5, 0.25, 0.125, and 0.0625 μg/mL. Three replicates were examined for each concentration. The MICs refer to the lowest concentration where no growth was visible after 16–20 h of incubation.
On the technique in general: In broth dilution the organism is exposed to a series of concentrations in liquid medium.

Assay [2] has as its system S. aureus E48 in mammary glands. As to the kind of experiment: Mouse model of S. aureus-induced mastitis. It counts as in vivo, BALB/c mice. The method, then: The animal protocols used in this work were approved by Institutional Animal Care and Use Committee of Northwest A&F University. The 6- to 8-week-old specific-pathogen-free BALB/c mice were purchased from the Experimental Animal Center of the Medical College of Xi’an Jiao Tong University. […] The lactating mice were challenged with S. aureus E48 as described earlier ([Schmelcher et al., 2015]). The pentobarbital sodium (1.4 mg/20 g bodyweight) was used for anesthesia of the lactating mice by intraperitoneal injection. The distal end of the teat L4 (on the left) and R4 (on the right) was removed (snipped) by a small cut. These L4 and R4 glands constitute the fourth pair found from head to tail. For all groups except for the snipped only group, glands were injected with approximately 10^4 CFU S. aureus in 50 μL PBS. At 45 min after S. aureus inoculation, the challenged glands were injected with 100 μg AMPs in 20 μL or 20 μL of PBS, depending on the treatment. The mice were euthanized 24 h after the S. aureus inoculation, and mammary glands were aseptically collected and weighed. Five mice (10 mammary glands) were used for each group. Seven mammary glands from each treatment were sampled and homogenized in PBS (100 mg/200 μL). Serial dilution plating on Baird-Parker agar plates was done to determine intramammary S. aureus. A part of the homogenate was centrifuged, and the supernatant was used for tumor necrosis factor alpha (TNF-α) and interleukin 6 (IL-6) assays, using the mouse TNF-α and IL-6 ELISA kits (Shanghai Bangyi Biotechnology). The tissue from three mammary glands from each treatment was fixed with 10% buffered formalin for histopathological analyses (HE staining).

Where [3] appears, read: 100 μg intramammary, 24 h post-infection, ELISA, P < 0.05.

The structures appear in SMILES notation. Values after ≈ are worked out from the molar mass of the structure shown.

In general, MIC refers to the lowest concentration that inhibits growth of the organism. On to `CN(C)[C@@H]1C(O)=C(C(N)=O)C(=O)[C@@]2(O)C(O)=C3C(=O)c4c(O)cccc4[C@@](C)(O)[C@H]3C[C@@H]12` [tetracycline, Tetracycline], for which, in assay [1], the MIC came to 1 µg/mL (≈ 2.25 µM). Moreover, the “Reduction of S. aureus numbers in mammary glands compared to PBS control” value in assay [2] (100 μg intramammary 45 min after ~10^4 CFU inoculation, 24 h after inoculation) is 1.48 log10 units. Besides, the “S. aureus-induced inflammatory cell infiltration in mammary tissue (HE staining)” value in assay [2] (100 μg intramammary, 24 h) is “significantly reduced”. In assay [2] (setting [3]), the “Intramammary IL-6 concentration in comparison with buffer control” value is on record as “significantly reduced” and the “Intramammary TNF-α concentration in comparison with buffer control” value was “significantly reduced”.

The values above are taken from publication PMC5723147, “Effective Antimicrobial Activity of Plectasin-Derived Antimicrobial Peptides against Staphylococcus aureus Infection in Mammary Glands” (Frontiers in Microbiology, 2017).
